Laboratory results from patent US8551960B2, “Uses of D-mannopyranose derivatives activating angiogenesis” (Centre National de la Recherche Scientifique, priority 2008, dated 2013).

Test system: chick embryo chorioallantoic membrane (CAM)
Assay: chick embryo chorioallantoic membrane (CAM) angiogenesis study
Type: in vivo, chick (Leghorn white breed)
Settings: nitrocellulose filter disk soaked with 20 μl of 6 mg/ml in PBS placed on CAM on 7th day; observed on 12th day; estimated visually; FIG. 1
Procedure: This study was conducted on chick embryos according to the method described by Ribatti D. et al., Nat. Protoc., 2006, 1(1), 85-91 with some minor modifications.
This study was conducted on chick embryo chorioallantoic membrane (CAM). The CAM is an extraembryonic membrane formed on the 4th day of incubation by fusion of the chorion and allantois. It enables gas exchanges to take place between the chick embryo and the extraembryonic environment until birth. This CAM is composed of a very thick capillary network which forms a continuous surface in direct contact with the shell. Rapid capillary proliferation of this membrane continues until the 11th day; the mitotic index then decreases rapidly and the vascular system reaches its final arrangement on the 18th day, just before birth (hatching on the 21st day).
Fertilized chicken eggs of the Leghorn white breed were placed in an incubator at the start of embryogenesis, where they were kept under constant humidity at a temperature of 38° C. On the second day of incubation, a window was made in the shell after removing 2 to 3 ml of albumin in order to detach the CAM from the shell. The window was then sealed with adhesive tape and the egg was put back in the incubator to continue its development until the day of the experiment. On the 7th day, pieces of inert synthetic polymers (nitrocellulose filter disks 0.4 cm in diameter) were soaked with 20 μl of each of the solutions of the test compounds (6 mg/ml in PBS) and were then positioned on the CAM. The effect of the test substances on angiogenesis was then observed on the 12th day and the quantitative evaluation of the pro- or antiangiogenic response was estimated visually.

| Molecule | effect on vascularization of the chick embryos (pro- or antiangiogenic response) |
| --- | --- |
| CO[C@H]1O[C@H](CCN)[C@@H](O)[C@H](O)[C@@H]1O [Compound I-1, Methyl 7-amino-6,7-dideoxy-α-D-manno-heptopyranoside] | activating effect on vascularization |
| CO[C@H]1O[C@H](CN=[N+]=[N-])[C@@H](O)[C@H](O)[C@@H]1O [Compound I-2, Methyl 6-Azido-6-Deoxy-α-D-Mannopyranoside] | activating effect on vascularization |
| COC1O[C@H](CCP(=O)(O)O)[C@@H](O)[C@H](O)[C@@H]1O (stereo partly drawn) [Compound I-4, methyl 7-phosphonato-6,7-dideoxy-D-manno-heptopyranoside] | activating effect on vascularization |
| COC1O[C@H](COP(=O)([O-])[O-])[C@@H](O)[C@H](O)[C@@H]1O.[Na+].[Na+] (stereo partly drawn) [DM1, methyl(disodium)-6-phosphate-D-manno-pyranoside] | inhibitory effect on vascularization |
| COC1O[C@H](CC(C(=O)O)C(=O)O)[C@@H](O)[C@H](O)[C@@H]1O (stereo partly drawn) [DM3, methyl 6-deoxy-6-malonate-D-mannopyranoside] | inhibitory effect on vascularization |
| COC1O[C@H](CC(=O)O)[C@@H](O)[C@H](O)[C@@H]1O (stereo partly drawn) [DM4, (methyl 6,7-dideoxy-D-manno-heptopyranoside)uronic acid] | inhibitory effect on vascularization |
| methyl 6,7-dideoxy-7-sulfonato-D-manno-heptopyranoside [DM2] | inhibitory effect on vascularization |
